Data published in ChEMBL document CHEMBL4330130, “Synthesis of amide and sulfonamide substituted N-aryl 6-aminoquinoxalines as PFKFB3 inhibitors with improved physicochemical properties” (Bioorg Med Chem Lett, 2019).
In brackets after ≈: the same amount, converted by molar mass.

Experiment: Kinetic solubility of the compound in pH 8 Tris buffer at 500 uM after 90 by UV-Vis absorbance analysis
Type: physicochemical
Conditions: read-out: Kinetic_solubility

Row | SMILES | solubility kinetic at 500 µM
1 | CN1CCC(NC(=O)c2ccncc2Nc2cc(-c3ccc4sc(N)nc4c3)c3nccnc3c2)C1 (stereo not given) | 241 µg/mL (≈ 485 µM)
2 | Cc1csc2ccc(-c3cc(Nc4cnccc4C(=O)N[C@H]4CCN(C)C4)cc4nccnc34)cc12 | 80 µg/mL (≈ 162 µM)
3 | CN1CCC(NC(=O)c2ccncc2Nc2cc(-c3ccc4ccn(C)c4c3)c3nccnc3c2)CC1=O (stereo not given) | 48 µg/mL (≈ 94.9 µM)
4 | CC(=O)N1CC(NC(=O)c2ccncc2Nc2cc(-c3ccc4ccn(C)c4c3)c3nccnc3c2)C1 | 244 µg/mL (≈ 496 µM)
5 | CN1CCC(CNS(=O)(=O)c2ccccc2Nc2cc(-c3ccc4ccn(C)c4c3)c3nccnc3c2)C1 (stereo not given) | 35 µg/mL (≈ 66.5 µM)
6 | CN(C)S(=O)(=O)c1ccccc1Nc1cc(-c2ccc3ccn(C)c3c2)c2nccnc2c1 | 2 µg/mL (≈ 4.37 µM)
7 | CN(Cc1cncnc1)S(=O)(=O)c1ccccc1Nc1cc(-c2ccc3ccn(C)c3c2)c2nccnc2c1 | 3 µg/mL (≈ 5.6 µM)
8 | CN1CC(NC(=O)c2ccncc2Nc2cc(-c3ccc4ccn(C)c4c3)c3nccnc3c2)CCC1=O (stereo not given) | 253 µg/mL (≈ 500 µM)
9 | CC(=O)N1CCC(NC(=O)c2ccncc2Nc2cc(-c3ccc4ccn(C)c4c3)c3nccnc3c2)CC1 | 213 µg/mL (≈ 410 µM)
10 | CC(=O)N1CCCC(NC(=O)c2ccncc2Nc2cc(-c3ccc4ccn(C)c4c3)c3nccnc3c2)C1 (stereo not given) | 212 µg/mL (≈ 408 µM)
11 | CC(=O)N1CCOC(CNC(=O)c2ccncc2Nc2cc(-c3ccc4ccn(C)c4c3)c3nccnc3c2)C1 (stereo not given) | 268 µg/mL (≈ 500 µM)
12 | CN1CCC(NC(=O)c2ccncc2Nc2cc(-c3ccc4ccn(C)c4c3)c3nccnc3c2)CC1 | 246 µg/mL (≈ 500 µM)
13 | Cn1ccc2ccc(-c3cc(Nc4ccccc4S(=O)(=O)NCC4CCOCC4)cc4nccnc34)cc21 | 2 µg/mL (≈ 3.79 µM)
14 | CNS(=O)(=O)c1ccccc1Nc1cc(-c2ccc3ccn(C)c3c2)c2nccnc2c1 | 2 µg/mL (≈ 4.51 µM)
15 | CN1CCC(NS(=O)(=O)c2ccccc2Nc2cc(-c3ccc4ccn(C)c4c3)c3nccnc3c2)C1 (stereo not given) | 26 µg/mL (≈ 50.7 µM)
16 | Cn1cc(CNS(=O)(=O)c2ccccc2Nc2cc(-c3ccc4ccn(C)c4c3)c3nccnc3c2)cn1 | 2 µg/mL (≈ 3.82 µM)
17 | CN1CCCC(NC(=O)c2ccncc2Nc2cc(-c3ccc4ccn(C)c4c3)c3nccnc3c2)C1 (stereo not given) | 246 µg/mL (≈ 500 µM)
18 | CN1CCC(NC(=O)c2ccncc2Nc2cc(-c3cc(F)c4ccn(C)c4c3)c3nccnc3c2)C1 (stereo not given) | 185 µg/mL (≈ 373 µM)
19 | Cn1ccc2ccc(-c3cc(Nc4ccccc4S(N)(=O)=O)cc4nccnc34)cc21 | 6 µg/mL (≈ 14 µM)
20 | Cn1ccc2ccc(-c3cc(Nc4ccccc4S(C)(=O)=O)cc4nccnc34)cc21 | 2 µg/mL (≈ 4.67 µM)
21 | Cn1ccc2ccc(-c3cc(Nc4ccccc4S(=O)(=O)Nc4cncnc4)cc4nccnc34)cc21 | 254 µg/mL (≈ 500 µM)
22 | Cn1ccc2ccc(-c3cc(Nc4ccccc4S(=O)(=O)N4CCOCC4)cc4nccnc34)cc21 | 5 µg/mL (≈ 10 µM)
23 | Cn1ccc2ccc(-c3cc(Nc4cnccc4C(=O)NC4CCNC(=O)C4)cc4nccnc34)cc21 (stereo not given) | 242 µg/mL (≈ 492 µM)
24 | CN1CCC(N(C)C(=O)c2ccncc2Nc2cc(-c3ccc4ccn(C)c4c3)c3nccnc3c2)C1 (stereo not given) | 245 µg/mL (≈ 498 µM)
25 | CC(=O)N1CCC(NC(=O)c2ccncc2Nc2cc(-c3ccc4ccn(C)c4c3)c3nccnc3c2)C1 (stereo not given) | 253 µg/mL (≈ 500 µM)
26 | CN1CCCC(NS(=O)(=O)c2ccccc2Nc2cc(-c3ccc4ccn(C)c4c3)c3nccnc3c2)C1 (stereo not given) | 9 µg/mL (≈ 17.1 µM)
27 | Cc1csc2ccc(-c3cc(Nc4cnccc4C(=O)N[C@@H]4CCN(C)C4)cc4nccnc34)cc12 | 79 µg/mL (≈ 160 µM)

Other lines, results leading:

Row | solubility kinetic at 500 µM | SMILES
28 | 170 µg/mL (≈ 367 µM) | CN1CC(NC(=O)c2ccncc2Nc2cc(-c3ccc4ccn(C)c4c3)c3nccnc3c2)C1
29 | 246 µg/mL (≈ 500 µM) | CN1CCC(CNC(=O)c2ccncc2Nc2cc(-c3ccc4ccn(C)c4c3)c3nccnc3c2)C1 (stereo not given)
30 | 40 µg/mL (≈ 101 µM) | Cn1ccc2ccc(-c3cc(Nc4cnccc4C(N)=O)cc4nccnc34)cc21
31 | 239 µg/mL (≈ 484 µM) | Cn1ccc2ccc(-c3cc(Nc4cnccc4C(=O)NCC4COCCN4)cc4nccnc34)cc21 (stereo not given)
32 | 233 µg/mL (≈ 479 µM) | Cn1ccc2ccc(-c3cc(Nc4cnccc4C(=O)NCc4cncnc4)cc4nccnc34)cc21
33 | 2 µg/mL (≈ 4.21 µM) | Cn1cc(NC(=O)c2ccncc2Nc2cc(-c3ccc4ccn(C)c4c3)c3nccnc3c2)cn1
34 | 175 µg/mL (≈ 414 µM) | CN(C)C(=O)c1ccncc1Nc1cc(-c2ccc3ccn(C)c3c2)c2nccnc2c1
35 | 4 µg/mL (≈ 8.47 µM) | Cn1ccc2ccc(-c3cc(Nc4cnccc4C(=O)Nc4cncnc4)cc4nccnc34)cc21
36 | 4 µg/mL (≈ 9.79 µM) | CNC(=O)c1ccncc1Nc1cc(-c2ccc3ccn(C)c3c2)c2nccnc2c1
37 | 229 µg/mL (≈ 480 µM) | CN1CCC(NC(=O)c2ccncc2Nc2cc(-c3ccc4ccn(C)c4c3)c3nccnc3c2)C1 (stereo not given)
38 | 127 µg/mL (≈ 260 µM) | Cn1cc(CNC(=O)c2ccncc2Nc2cc(-c3ccc4ccn(C)c4c3)c3nccnc3c2)cn1
39 | 252 µg/mL (≈ 498 µM) | CC(=O)N1CC(CNC(=O)c2ccncc2Nc2cc(-c3ccc4ccn(C)c4c3)c3nccnc3c2)C1
40 | 3 µg/mL (≈ 5.75 µM) | Cn1ccc2ccc(-c3cc(Nc4ccccc4S(=O)(=O)NCc4cncnc4)cc4nccnc34)cc21
